Laboratory results from US8685925B2, “Method and compositions for treating stroke with fever” (Nono Inc., priority 2006, dated 2014).
Read-outs that look alike come from different tables or passages of the source. No end group written: not given here.

What was measured:
PSD-95 = PSD-95 (Homo sapiens, UniProt P78352); conditions: Kornau, 1995; Aarts, 2002; cited from earlier work
Sprague-Dawley rats [1] = format: in vivo, rat; conditions: pial vessel occlusion study
Method: (§1) The peptides were prepared daily from lyophilized powder by dissolving them in normal saline to the final desired concentration. They were administered intravenously via a slow (4-5 min) injection by individuals blinded to the treatment group.
(§2) Experiments were performed in male adult Sprague-Dawley rats weighing 250-300 g (Charles River Laboratory, Canada). All procedures conformed to guidelines established by the Canadian Council on Animal Care and with the approval of the University Health Network animal care committee. All animals were housed in groups of 1-2 animals in cages with free access to food and water and in rooms having an ambient temperature of 20±1° C. and 12:12 hr light/dark cycle.
Each animal was weighed and then anesthesia was induced. For the permanent pial vessel occlusion model, rats were anesthetized with ketamine (100 mg/kg), acepromazine (2 mg/kg), and xylazine (50 mg/kg), supplemented with one third the initial dose as required. For the two permanent middle cerebral artery occlusion (pMCAO) studies, anesthesia was induced with 3.5% halothane in a mixture of nitrous oxide and oxygen (Vol. 2:1) and maintained with 0.8% halothane in the mixture. […] Mean arterial blood pressure was measured with the use of an indwelling femoral arterial catheter connected to a pressure transducer and was recorded continuously. […]

Sprague-Dawley rats [2] = format: in vivo, rat
Method: as §1, §2
(§3) Each animal was weighed and then anesthesia was induced. For the permanent pial vessel occlusion model, rats were anesthetized with ketamine (100 mg/kg), acepromazine (2 mg/kg), and xylazine (50 mg/kg), supplemented with one third the initial dose as required. For the two permanent middle cerebral artery occlusion (pMCAO) studies, anesthesia was induced with 3.5% halothane in a mixture of nitrous oxide and oxygen (Vol. 2:1) and maintained with 0.8% halothane in the mixture. Rats were endotracheally intubated and mechanically ventilated (60 strokes/min, tidal volume of […]). A rectal temperature probe was inserted. Polyethylene catheters (PE-50) were introduced into the left femoral artery and vein for blood pressure recording, blood sampling, and drug injection. Mean arterial blood pressure was measured with the use of an indwelling femoral arterial catheter connected to a pressure transducer and was recorded continuously. Serial measurements were made of arterial blood gases, pH, and blood glucose.
The left middle cerebral artery was occluded by the intraluminal suture method described by Longa (1989). In brief, the left common carotid artery (CCA) was exposed through a midline neck incision and was dissected free from surrounding nerves and fascia, from its bifurcation to the base of the skull. The occipital artery branches of the external carotid artery (ECA) were then isolated, and these branches were dissected and coagulated. The ECA was dissected further distally and coagulated along with the terminal lingual and maxillary artery branches, which were then divided. The internal carotid artery (ICA) was isolated and carefully separated from the adjacent vagus nerve, and the pterygopalatine artery was ligated close to its origin. The tip of a 4-cm length of 3-0 monofilament nylon suture (Harvard Apparatus) was rounded by burning to achieve a tip diameter of 0.33-0.36 mm and tip length of 0.5-0.6 mm and coated with poly-L-lysine (Belayev et al., 1996). The suture was introduced through the CCA and advanced into the ICA and thence into the circle of Willis (about 18-20 mm from the carotid bifurcation), effectively occluding the middle cerebral artery. The silk suture around the CCA was tightened around the intraluminal nylon suture to secure it and permanently occlude the middle cerebral artery. Sham operated animals underwent the identical surgical procedure, including permanent ligation of the CCA, but without suture insertion to occlude the MCA. The pMCAO procedure was considered to be adequate if the animal's neurobehavioral score (below) exceeded 10 at 2 h after pMCAO. Animals were allowed to recover from anesthesia at room temperature.
At 24 h after pMCAO the animals were deeply anaesthetized employing halothane inhalation and the brains were quickly removed, sliced into 8 standard coronal sections, and incubated for 30 min in 2% triphenyltetrazolium chloride (TTC; Sigma, St. Louis, USA) in saline at 37° C. […] Each section was digitally photographed, and the infarcts were then traced onto templates representing the 8 standardized coronal slices. The use of the templates corrects for any brain edema produced by the infarct, allowing for a more accurate determination of infarct volume. […]

Sprague-Dawley rats [3] = assay: Core temperature after sham procedure with peptide injection; format: in vivo, rat; conditions: single i.v. injection of 3 nMole/g
Method: A day prior to undergoing ischemia, the animals were implanted with intraperitoneal transmitters (E-Mitter; Mini Mitter/Respironics, Oregon, USA) permitting core temperature (CT) and activity monitoring. Monitoring was performed continuously from 20 hours before, to 24 hours after, the pMCAO (Mini-Mitter VitalView telemetric monitoring software; Mini Mitter/Respironics, Oregon, USA). During the animal surgery the animals were away from the telemetric receivers, so CT was measured with a rectal probe and maintained at 36.5° C. to 37.5° C. using a heating lamp or homeothermic blanket. […] Temporalis muscle temperatures were measured with the same thermocouple probe inserted into the muscle through an 18 gauge needle. Cage temperatures were continuously recorded using an external temperature probe and software (Tektronix WaveStar software; Tektronix, Texas, USA) running on a digital oscilloscope and a separate computer. […]
Previous experience has shown that the neuroprotective effects of some anti-ischemic drugs might have been, at least in part, related to drug-induced hypothermia (e.g., MK-801; Corbett, 1990). […] To determine whether PSD-95 inhibition affected core temperature (CT), it was measured in rats (n=6) implanted with telemetric intra-peritoneal temperature monitors. […]

Sprague-Dawley rats [4] = assay: Physiological parameters in the pMCAO studies (body weight, MABP, blood gases, pH); format: in vivo, rat; conditions: for pH: arterial blood; for pH / MABP / pCO2 / pO2: first line, time not given
Method: as §3

Chain of PSD-95 (P78352 whole entry, species assumed): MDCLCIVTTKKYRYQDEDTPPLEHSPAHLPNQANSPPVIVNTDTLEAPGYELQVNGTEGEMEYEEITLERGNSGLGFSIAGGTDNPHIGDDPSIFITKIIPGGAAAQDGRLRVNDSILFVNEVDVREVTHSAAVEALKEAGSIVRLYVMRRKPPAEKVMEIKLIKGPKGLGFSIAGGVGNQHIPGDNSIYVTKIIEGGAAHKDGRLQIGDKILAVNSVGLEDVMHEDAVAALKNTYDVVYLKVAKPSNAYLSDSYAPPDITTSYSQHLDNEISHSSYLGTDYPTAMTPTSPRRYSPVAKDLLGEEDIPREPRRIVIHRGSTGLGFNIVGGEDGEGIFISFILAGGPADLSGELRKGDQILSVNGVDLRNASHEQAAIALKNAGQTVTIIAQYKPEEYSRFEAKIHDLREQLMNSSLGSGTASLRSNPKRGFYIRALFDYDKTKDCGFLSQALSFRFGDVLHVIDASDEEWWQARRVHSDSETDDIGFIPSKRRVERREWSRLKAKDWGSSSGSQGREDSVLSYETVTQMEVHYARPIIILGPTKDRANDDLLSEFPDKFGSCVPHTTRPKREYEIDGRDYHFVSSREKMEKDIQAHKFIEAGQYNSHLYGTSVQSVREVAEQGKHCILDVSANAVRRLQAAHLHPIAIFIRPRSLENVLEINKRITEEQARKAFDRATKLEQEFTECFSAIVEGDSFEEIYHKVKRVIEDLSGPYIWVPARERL

KLSSIEADA [NR2B(ADA), reference compound]
binding to PSD-95 (PSD-95): incapable of binding PSD-95

KLSSIETDV (PL protein motif) [NR2B9c(TDA)]
binding to PSD-95 (PSD-95): interacts with the PDZ2 domain of PSD-9S

YGRKKRRQRRRKLSSIESDV [Tat-NR2B9c(SDV)]
Post-op Deaths (Sprague-Dawley rats [1]; 0.3 nMole/g): 0
Post-op Deaths (Sprague-Dawley rats [1]; 3.0 nMole/g): 0
Post-op Deaths (Sprague-Dawley rats [2]; pMCAO study #1, 0.3 nMole/g): 1/1
Post-op Deaths (Sprague-Dawley rats [2]; pMCAO study #1, 3.0 nMole/g): 1
Post-op Deaths (Sprague-Dawley rats [2]; pMCAO study #2, 0.3 nMole/g): 1/1
difference in core temperature versus sham (vehicle) animals (Sprague-Dawley rats [3]; 20 h before until 24 h after): no differences in CT at any time point
increase in core temperature after termination of anesthesia (Sprague-Dawley rats [3]; no ischemia, n=6): ~0.5 °C

YGRKKRRQRRRKLSSIETDV [Tat-NR2B9c(TDV)]
MABP 10 min (Sprague-Dawley rats [4]; 1st study, 0.3 nmol/g): 121.44 ± 5.23 mmHg
pCO2 10 min (Sprague-Dawley rats [4]; 1st study, 0.3 nmol/g): 39.33 ± 0.73 mmHg
pH 10 min (Sprague-Dawley rats [4]; 1st study, 0.3 nmol/g): 7.44 ± 0.01
pO2 10 min (Sprague-Dawley rats [4]; 1st study, 0.3 nmol/g): 124.22 ± 6.34 mmHg
MABP 70 min (Sprague-Dawley rats [4]; 1st study, 0.3 nmol/g): 129.44 ± 6.54 mmHg
pCO2 70 min (Sprague-Dawley rats [4]; 1st study, 0.3 nmol/g): 38.67 ± 0.93 mmHg
pH 70 min (Sprague-Dawley rats [4]; 1st study, 0.3 nmol/g): 7.41 ± 0.01
pO2 70 min (Sprague-Dawley rats [4]; 1st study, 0.3 nmol/g): 137.67 ± 4.75 mmHg
pH (Sprague-Dawley rats [4]; 1st study, 0.3 nmol/g): 7.42 ± 0.02
MABP (Sprague-Dawley rats [4]; 1st study, 0.3 nmol/g): 126.00 ± 5.54 mmHg
pCO2 (Sprague-Dawley rats [4]; 1st study, 0.3 nmol/g): 38.11 ± 0.81 mmHg
pO2 (Sprague-Dawley rats [4]; 1st study, 0.3 nmol/g): 131.44 ± 9.11 mmHg
MABP 10 min (Sprague-Dawley rats [4]; 1st study, 3 nmol/g): 140.63 ± 7.64 mmHg
pCO2 10 min (Sprague-Dawley rats [4]; 1st study, 3 nmol/g): 40.25 ± 0.99 mmHg
pH 10 min (Sprague-Dawley rats [4]; 1st study, 3 nmol/g): 7.43 ± 0.01
pO2 10 min (Sprague-Dawley rats [4]; 1st study, 3 nmol/g): 136.00 ± 2.57 mmHg
MABP 70 min (Sprague-Dawley rats [4]; 1st study, 3 nmol/g): 102.13 ± 2.39 mmHg
pCO2 70 min (Sprague-Dawley rats [4]; 1st study, 3 nmol/g): 40.38 ± 0.84 mmHg
pH 70 min (Sprague-Dawley rats [4]; 1st study, 3 nmol/g): 7.40 ± 0.01
pO2 70 min (Sprague-Dawley rats [4]; 1st study, 3 nmol/g): 132.25 ± 4.65 mmHg
pH (Sprague-Dawley rats [4]; 1st study, 3 nmol/g): 7.44 ± 0.01
MABP (Sprague-Dawley rats [4]; 1st study, 3 nmol/g): 123.63 ± 6.27 mmHg
pCO2 (Sprague-Dawley rats [4]; 1st study, 3 nmol/g): 39.75 ± 0.70 mmHg
pO2 (Sprague-Dawley rats [4]; 1st study, 3 nmol/g): 130.63 ± 6.24 mmHg
MABP 10 min (Sprague-Dawley rats [4]; 2nd study, 0.3 nmol/g): 140.50 ± 4.69 mmHg
pCO2 10 min (Sprague-Dawley rats [4]; 2nd study, 0.3 nmol/g): 42.75 ± 0.59 mmHg
pH 10 min (Sprague-Dawley rats [4]; 2nd study, 0.3 nmol/g): 7.38 ± 0.01
pO2 10 min (Sprague-Dawley rats [4]; 2nd study, 0.3 nmol/g): 132.00 ± 4.92 mmHg
MABP 70 min (Sprague-Dawley rats [4]; 2nd study, 0.3 nmol/g): 129.25 ± 8.09 mmHg
pCO2 70 min (Sprague-Dawley rats [4]; 2nd study, 0.3 nmol/g): 41.75 ± 1.13 mmHg
pH 70 min (Sprague-Dawley rats [4]; 2nd study, 0.3 nmol/g): 7.41 ± 0.01
pO2 70 min (Sprague-Dawley rats [4]; 2nd study, 0.3 nmol/g): 121.00 ± 4.39 mmHg
pH (Sprague-Dawley rats [4]; 2nd study, 0.3 nmol/g): 7.38 ± 0.02
MABP (Sprague-Dawley rats [4]; 2nd study, 0.3 nmol/g): 119.00 ± 4.11 mmHg
pCO2 (Sprague-Dawley rats [4]; 2nd study, 0.3 nmol/g): 39.25 ± 1.06 mmHg
pO2 (Sprague-Dawley rats [4]; 2nd study, 0.3 nmol/g): 133.13 ± 5.15 mmHg
pCO2 10 min (Sprague-Dawley rats [4]; 2nd study, 3 nmol/g): 37.50 ± 0.80 mmHg
pH 10 min (Sprague-Dawley rats [4]; 2nd study, 3 nmol/g): 7.38 ± 0.02
pO2 10 min (Sprague-Dawley rats [4]; 2nd study, 3 nmol/g): 120.13 ± 6.53 mmHg
MABP 70 min (Sprague-Dawley rats [4]; 2nd study, 3 nmol/g): 130.25 ± 12.26 mmHg
pCO2 70 min (Sprague-Dawley rats [4]; 2nd study, 3 nmol/g): 40.88 ± 1.42 mmHg
pH 70 min (Sprague-Dawley rats [4]; 2nd study, 3 nmol/g): 7.39 ± 0.02
pO2 70 min (Sprague-Dawley rats [4]; 2nd study, 3 nmol/g): 124.63 ± 4.44 mmHg
pH (Sprague-Dawley rats [4]; 2nd study, 3 nmol/g): 7.41 ± 0.01
MABP (Sprague-Dawley rats [4]; 2nd study, 3 nmol/g): 124.13 ± 6.29 mmHg
pCO2 (Sprague-Dawley rats [4]; 2nd study, 3 nmol/g): 38.63 ± 1.05 mmHg
pO2 (Sprague-Dawley rats [4]; 2nd study, 3 nmol/g): 141.13 ± 10.44 mmHg
Post-op Deaths (Sprague-Dawley rats [2]; pMCAO study #1, 0.3 nMole/g): 0
Post-op Deaths (Sprague-Dawley rats [2]; pMCAO study #1, 3.0 nMole/g): 0
Post-op Deaths (Sprague-Dawley rats [2]; pMCAO study #2, 0.3 nMole/g): 2
Post-op Deaths (Sprague-Dawley rats [2]; pMCAO study #2, 3.0 nMole/g): 3
